# Legend:
# GSTO1–1 = biological target: T1, GSTO1–1 (Homo sapiens, UniProt P78417); conditions: GSTO1–1 binding assay
# T1 sequence (P78417 1-241): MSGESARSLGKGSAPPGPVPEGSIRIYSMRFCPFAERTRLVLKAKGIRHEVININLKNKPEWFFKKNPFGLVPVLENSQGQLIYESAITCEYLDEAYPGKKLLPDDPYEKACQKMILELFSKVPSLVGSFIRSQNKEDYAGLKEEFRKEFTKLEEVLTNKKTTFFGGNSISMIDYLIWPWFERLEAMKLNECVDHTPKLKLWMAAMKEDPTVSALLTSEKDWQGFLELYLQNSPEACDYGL
# HCT116 = experiment: MTT cell viability assay, HCT116; assay type: cell-based; conditions: read-out: IC50-MTT HCT116; HCT116, 72 h; values of two independent experiments
# [1] = Stability in 20% acetonitrile/PBS buffer by LC–MS; assay type: physicochemical; conditions: room temperature overnight
compound,measurement,setting,value
"C=CC(=O)Nc1cnn(-c2ccccc2)c1 [Compound 5, N-(1-Phenyl-1H-pyrazol-4-yl)acrylamide]",GSTO1–1 binding activity (in words),GSTO1–1,inactive
"C=CC(=O)Nc1cnn(Cc2ccccc2)c1 [Compound 6, N-(1-Benzyl-1H-pyrazol-4-yl)acrylamide]",GSTO1–1 binding activity (in words),GSTO1–1,inactive
"C=CC(=O)N1CCC(c2ccccc2)CC1 [Compound 7, 1-(4-Phenylpiperidin-1-yl)prop-2-en-1-one]",GSTO1–1 binding activity (in words),GSTO1–1,did not possess significant GSTO1–1 binding activity
"C=CC(=O)N1CCC(Cc2ccccc2)CC1 [Compound 8, 1-(4-Benzylpiperidin-1-yl)prop-2-en-1-one]",GSTO1–1 binding activity (in words),GSTO1–1,did not possess significant GSTO1–1 binding activity
"C=CC(=O)Nc1nc(-c2ccc(O)cc2)cs1 [Compound 25, N-(4-(4-Hydroxylphenyl)thiazol-2-yl)acrylamide]",IC50,HCT116,7.1 µM
"C=CC(=O)Nc1nc(-c2ccccc2OC)cs1 [Compound 26, N-(4-(2-Methoxyphenyl)thiazol-2-yl)acrylamide]",GSTO1–1 binding activity (in words),GSTO1–1,inactive
"C=CC(=O)N(Cc1cc(C)no1)c1nc(-c2ccccc2O)cs1 [Compound 49, N-((3-Methylisoxazol-5-yl)methyl)-N-(4-(2-hydroxylphenyl)thiazol-2-yl)acrylamide]",stability in 20% acetonitrile/PBS buffer solution,[1],good stability
